Assay results from patent US12404295B2, “(Hetero)aryl-methyl-thio-beta-D-galactopyranoside derivatives” (Idorsia Pharmaceuticals Ltd, priority 2019, dated 2025).
Read-outs that look alike come from different tables or passages of the source.

Assays:
human Gal-3 (hGal-3) = human Gal-3 (hGal-3) (Homo sapiens (Human), UniProt P17931); assay: competitive binding assay: biotinylated hGal-3 binding to microplate-adsorbed asialofetuin (ASF); conditions: read-out: IC50 (Gal-3 inhibition)
Summary of the method: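 Compounds serially diluted in DMSO compete with asialofetuin for biotinylated human Gal-3; plates are incubated 3 h at 4 °C, washed, then treated 1 h at 4 °C with streptavidin-peroxidase (80 ng/mL) and developed with ABTS. IC50 values are means of several measurements.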

human Gal-1 (hGal-1) = human Gal-1 (hGal-1) (Homo sapiens (Human), UniProt P09382); assay: competitive binding assay: biotinylated hGal-1 binding to microplate-adsorbed asialofetuin (ASF); conditions: Table 15; read-out: IC50 (Galectin-1 inhibition)
Summary of the method: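 Biotinylated human Gal-1 (300-1000 ng/mL) competes with serially diluted compound for binding to ASF-coated plates, 3 h at 4° C. Bound protein detected with streptavidin-peroxidase and ABTS substrate (spectrophotometric). IC50 given as mean of several measurements.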

Chain of human Gal-3 (hGal-3) (P17931 whole entry): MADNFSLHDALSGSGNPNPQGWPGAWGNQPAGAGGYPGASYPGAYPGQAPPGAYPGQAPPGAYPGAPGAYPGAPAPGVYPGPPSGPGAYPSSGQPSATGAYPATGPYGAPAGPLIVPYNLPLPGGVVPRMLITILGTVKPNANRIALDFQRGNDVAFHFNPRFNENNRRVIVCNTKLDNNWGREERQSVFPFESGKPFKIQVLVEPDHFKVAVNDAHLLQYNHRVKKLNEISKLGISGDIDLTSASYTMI
Chain of human Gal-1 (hGal-1) (P09382 whole entry): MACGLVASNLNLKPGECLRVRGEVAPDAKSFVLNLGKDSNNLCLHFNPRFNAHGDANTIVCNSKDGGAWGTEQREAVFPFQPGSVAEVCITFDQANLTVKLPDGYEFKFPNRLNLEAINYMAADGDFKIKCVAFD

CO[C@@H]1[C@@H](n2cc(-c3cc(F)c(F)c(F)c3)nn2)[C@@H](O)[C@@H](CO)O[C@H]1S[C@H](c1ccccc1C)[C@]1(O)CCOC(C)(C)C1 [Example 2.43.102RS.I., (2R,3R,4S,5R,6S)-6-(((R)-((S)-4-Hydroxy-2,2-dimethyltetrahydro-2H-pyran-4-yl)(o-tolyl)methyl)thio)-2-(hydroxymethyl)-5-methoxy-4-(4-(3,4,5-trifluorophenyl)-1H-1,2,3-triazol-1-yl)tetrahydro-2H-pyran-3-ol]
IC50 (human Gal-3 (hGal-3); Table 9, 2-OMe-Gal inhibitors): 60 nM | IC50 (human Gal-1 (hGal-1)): 1900 nM

CC(C)c1ccccc1C(S[C@@H]1O[C@H](CO)[C@H](O)[C@H](n2cc(-c3cc(F)c(F)c(F)c3)nn2)[C@H]1O)C1(O)CCC(F)(F)CC1 (stereo partly drawn) [Example 2.44.105., (2S,3R,4S,5R,6R)-2-(((4,4-Difluoro-1-hydroxycyclohexyl)(2-isopropylphenyl)methyl)thio)-6-(hydroxymethyl)-4-(4-(3,4,5-trifluorophenyl)-1H-1,2,3-triazol-1-yl)tetrahydro-2H-pyran-3,5-diol [1,3-di-deoxy-1-((4,4-difluoro-1-hydroxy-cyclohexan-1-yl)-(2-(-isopropyl)phenyl)methyl-thio)-3-[4-(3,4,5-trifluorophenyl)-1H-1,2,3-triazol-1-yl]-β-D-galactopyranoside]]
IC50 (human Gal-3 (hGal-3); Table 5): 140 nM | IC50 (human Gal-1 (hGal-1)): 80 nM

CC(C)c1ccccc1[C@@H](S[C@@H]1O[C@H](CO)[C@H](O)[C@H](n2cc(-c3cc(F)c(F)c(F)c3)nn2)[C@H]1O)C1(O)CCC(F)(F)CC1 [Example 2.44.105R., (2S,3R,4S,5R,6R)-2-(((R)-(4,4-Difluoro-1-hydroxycyclohexyl)(2-isopropylphenyl)methyl)thio)-6-(hydroxymethyl)-4-(4-(3,4,5-trifluorophenyl)-1H-1,2,3-triazol-1-yl)tetrahydro-2H-pyran-3,5-diol [1,3-di-deoxy-1-((4,4-difluoro-1-hydroxy-cyclohexan-1-yl)-(2-(-isopropyl)phenyl)methyl-(R)-thio)-3-[4-(3,4,5-trifluorophenyl)-1H-1,2,3-triazol-1-yl]-β-D-galactopyranoside]]
IC50 (human Gal-3 (hGal-3); Table 5): 60 nM | IC50 (human Gal-1 (hGal-1)): 40 nM

CO[C@@H]1[C@@H](n2cc(-c3cc(F)c(F)c(F)c3)nn2)[C@@H](O)[C@@H](CO)O[C@H]1S[C@H](c1ccccc1C(C)C)C1(O)CCC(F)(F)CC1 [Example 2.44.105R.I., (2R,3R,4S,5R,6S)-6-(((R)-(4,4-Difluoro-1-hydroxycyclohexyl)(2-isopropylphenyl)methyl)thio)-2-(hydroxymethyl)-5-methoxy-4-(4-(3,4,5-trifluorophenyl)-1H-1,2,3-triazol-1-yl)tetrahydro-2H-pyran-3-ol]
IC50 (human Gal-3 (hGal-3); Table 10, 2-OMe-Gal inhibitors): 320 nM | IC50 (human Gal-1 (hGal-1)): 150 nM

CC(C)c1ccccc1[C@H](S[C@@H]1O[C@H](CO)[C@H](O)[C@H](n2cc(-c3cc(F)c(F)c(F)c3)nn2)[C@H]1O)C1(O)CCC(F)(F)CC1 [Example 2.44.105S., (2S,3R,4S,5R,6R)-2-(((S)-(4,4-Difluoro-1-hydroxycyclohexyl)(2-isopropylphenyl)methyl)thio)-6-(hydroxymethyl)-4-(4-(3,4,5-trifluorophenyl)-1H-1,2,3-triazol-1-yl)tetrahydro-2H-pyran-3,5-diol]
IC50 (human Gal-3 (hGal-3); Table 5): 950 nM | IC50 (human Gal-1 (hGal-1)): 520 nM

CO[C@@H]1[C@@H](n2cc(-c3cc(F)c(F)c(F)c3)nn2)[C@@H](O)[C@@H](CO)O[C@H]1S[C@@H](c1ccccc1C(C)C)C1(O)CCC(F)(F)CC1 [Example 2.44.105S.I., (2R,3R,4S,5R,6S)-6-(((S)-(4,4-Difluoro-1-hydroxycyclohexyl)(2-isopropylphenyl)methyl)thio)-2-(hydroxymethyl)-5-methoxy-4-(4-(3,4,5-trifluorophenyl)-1H-1,2,3-triazol-1-yl)tetrahydro-2H-pyran-3-ol]
IC50 (human Gal-3 (hGal-3); Table 10, 2-OMe-Gal inhibitors): 70500 nM | IC50 (human Gal-1 (hGal-1)): 53300 nM

CO[C@@H]1[C@@H](n2cc(-c3cc(F)c(F)c(F)c3)nn2)[C@@H](O)[C@@H](CO)O[C@H]1S[C@H](c1ccccc1C1CC1)C1(O)CCC(F)(F)CC1 [Example 2.44.106R.I., (2R,3R,4S,5R,6S)-6-(((R)-(2-Cyclopropylphenyl)(4,4-difluoro-1-hydroxycyclohexyl)methyl)thio)-2-(hydroxymethyl)-5-methoxy-4-(4-(3,4,5-trifluorophenyl)-1H-1,2,3-triazol-1-yl)tetrahydro-2H-pyran-3-ol]
IC50 (human Gal-3 (hGal-3); Table 10, 2-OMe-Gal inhibitors): 180 nM | IC50 (human Gal-1 (hGal-1)): 210 nM

OC[C@H]1O[C@@H](SC(c2ccccc2C(F)(F)F)C2(O)CCC(F)(F)CC2)[C@H](O)[C@@H](n2cc(-c3cc(F)c(F)c(F)c3)nn2)[C@H]1O (stereo partly drawn) [Example 2.44.112., (2S,3R,4S,5R,6R)-2-(((4,4-Difluoro-1-hydroxycyclohexyl)(2-(trifluoromethyl)phenyl)methyl)thio)-6-(hydroxymethyl)-4-(4-(3,4,5-trifluorophenyl)-1H-1,2,3-triazol-1-yl)tetrahydro-2H-pyran-3,5-diol]
IC50 (human Gal-3 (hGal-3); Table 5): 300 nM | IC50 (human Gal-1 (hGal-1)): 950 nM

OC[C@H]1O[C@@H](S[C@H](c2ccccc2C(F)(F)F)C2(O)CCC(F)(F)CC2)[C@H](O)[C@@H](n2cc(-c3cc(F)c(F)c(F)c3)nn2)[C@H]1O [Example 2.44.112R., (2S,3R,4S,5R,6R)-2-(((R)-(4,4-Difluoro-1-hydroxycyclohexyl)(2-(trifluoromethyl)phenyl)methyl)thio)-6-(hydroxymethyl)-4-(4-(3,4,5-trifluorophenyl)-1H-1,2,3-triazol-1-yl)tetrahydro-2H-pyran-3,5-diol]
IC50 (human Gal-3 (hGal-3); Table 5): 80 nM | IC50 (human Gal-1 (hGal-1)): 770 nM

CO[C@@H]1[C@@H](n2cc(-c3cc(F)c(F)c(F)c3)nn2)[C@@H](O)[C@@H](CO)O[C@H]1SC(c1nc(C)c(C)nc1C)C1(O)CCC(F)(F)CC1 (stereo partly drawn) [Example 2.44.119.I., (2R,3R,4S,5R,6S)-6-(((4,4-Difluoro-1-hydroxycyclohexyl)(3,5,6-trimethylpyrazin-2-yl)methyl)thio)-2-(hydroxymethyl)-5-methoxy-4-(4-(3,4,5-trifluorophenyl)-1H-1,2,3-triazol-1-yl)tetrahydro-2H-pyran-3-ol]
IC50 (human Gal-3 (hGal-3); Table 11): 260 nM | IC50 (human Gal-1 (hGal-1)): 1300 nM

Cc1nc(C)c([C@@H](S[C@@H]2O[C@H](CO)[C@H](O)[C@H](n3cc(-c4cc(F)c(F)c(F)c4)nn3)[C@H]2O)C2(O)CCC(F)(F)CC2)nc1C [Example 2.44.119R., (2S,3R,4S,5R,6R)-2-(((R)-(4,4-Difluoro-1-hydroxycyclohexyl)(3,5,6-trimethylpyrazin-2-yl)methyl)thio)-6-(hydroxymethyl)-4-(4-(3,4,5-trifluorophenyl)-1H-1,2,3-triazol-1-yl)tetrahydro-2H-pyran-3,5-diol]
IC50 (human Gal-3 (hGal-3); Table 5): 30 nM | IC50 (human Gal-1 (hGal-1)): 230 nM

CO[C@@H]1[C@@H](n2cc(-c3cc(F)c(F)c(F)c3)nn2)[C@@H](O)[C@@H](CO)O[C@H]1S[C@H](c1nc(C)c(C)nc1C)C1(O)CCC(F)(F)CC1 [Example 2.44.119R.I., (2R,3R,4S,5R,6S)-6-(((R)-(4,4-Difluoro-1-hydroxycyclohexyl)(3,5,6-trimethylpyrazin-2-yl)methyl)thio)-2-(hydroxymethyl)-5-methoxy-4-(4-(3,4,5-trifluorophenyl)-1H-1,2,3-triazol-1-yl)tetrahydro-2H-pyran-3-ol]
IC50 (human Gal-3 (hGal-3); Table 11): 90 nM | IC50 (human Gal-1 (hGal-1)): 450 nM
